Values of other authors in PubChem BioAssay AID1259409 (Chemical Carcinogenesis Research Information System (CCRIS), 2018).

Test system: rodent chemically induced tumor inhibition, incidence and multiplicity
Experiment: CCRIS tumor inhibitor studies
Conditions: 64091-91-4, Dose [Inhibitor]: 0, Species: MOUSE, Promoter: NONE USED

SMILES | tumour outcome (control, treated, inhibition, significance) (Carcinogen: 4-(N-METHYL-N-NITROSAMINO)-1-(3-PYRIDYL)-1-BUTANONE, 40 PPM IN THE DIET FOR 6 MO BEGINNING 1 WK POST CARCINOGEN DOSE (STUDY DURATION: 6 MO), Route [Inhibitor]: ORAL, Strain/Sex: STRAIN-A/MALE, Target Tissue: Type of Lesion: LUNG: TUMOR, Dose [Carcinogen]: 10 UMOL ONCE) | tumour outcome (control, treated, inhibition, significance) (Carcinogen: 4-(N-METHYL-N-NITROSAMINO)-1-(3-PYRIDYL)-1-BUTANONE, 160 PPM IN THE DIET FOR 6 MO BEGINNING 1 WK POST CARCINOGEN DOSE (STUDY DURATION: 6 MO), Route [Inhibitor]: ORAL, Strain/Sex: STRAIN-A/MALE, Target Tissue: Type of Lesion: LUNG: TUMOR, Dose [Carcinogen]: 10 UMOL ONCE) | tumour outcome (control, treated, inhibition, significance) (Carcinogen: 4-(N-METHYL-N-NITROSAMINO)-1-(3-PYRIDYL)-1-BUTANONE, 400 PPM IN THE DIET FOR 6 MO BEGINNING 1 WK POST CARCINOGEN DOSE (STUDY DURATION: 6 MO), Route [Inhibitor]: ORAL, Strain/Sex: STRAIN-A/MALE, Target Tissue: Type of Lesion: LUNG: TUMOR, Dose [Carcinogen]: 10 UMOL ONCE) | tumour outcome (control, treated, inhibition, significance) (Carcinogen: 4-(METHYLNITROSAMINO)-1-(3-PYRIDYL)-1-BUTANONE, 1 UMOL ONCE 2 HR PRIOR TO CARCINOGEN DOSE (STUDY DURATION: 16 WK), Route [Inhibitor]: GAVAGE, Strain/Sex: STRAIN-A/FEMALE, Target Tissue: Type of Lesion: LUNG: ADENOMA, Dose [Carcinogen]: 10 UMOL IN 0.1 ML SALINE ONCE) | tumour outcome (control, treated, inhibition, significance) (Carcinogen: 4-(METHYLNITROSAMINO)-1-(3-PYRIDYL)-1-BUTANONE, 5 UMOL ONCE 2 HR PRIOR TO CARCINOGEN DOSE (STUDY DURATION: 16 WK), Route [Inhibitor]: GAVAGE, Strain/Sex: STRAIN-A/FEMALE, Target Tissue: Type of Lesion: LUNG: ADENOMA, Dose [Carcinogen]: 10 UMOL IN 0.1 ML SALINE ONCE)
CC[C@H](C)C(=O)O[C@H]1C[C@@H](C)C=C2C=C[C@H](C)[C@H](CC[C@@H]3C[C@@H](O)CC(=O)O3)[C@H]21 | 15/15 (100%), 15/15 (100%), 0%, not significant | 15/15 (100%), 15/15 (100%), 0%, not significant | 15/15 (100%), 12/14 (86%), 14%, not significant |  | 
C=CCN=C=S |  |  |  | 100%, 100%, 0%, not significant | 100%, 100%, 0%, not significant
